Data on three molecules can be found in patent US20130059824A1, “METHODS FOR TREATING MILD COGNITIVE IMPAIRMENT” (AFRAXis, Inc., priority 2009, published 2013).

One assay deals with PAK2 (Homo sapiens, UniProt Q13177). Briefly: Z'Lyte fluorescence-based (FRET) kinase assay, PAK2. The class given is biochemical. Particulars: 75 μM ATP (Km apparent), 1 hr room temperature. How it is done: (§1) A fluorescence-based assay format is used to determine IC50 values of test compounds in vitro. Purified PAK kinase is incubated with ATP, and a test compound at various concentrations and a substrate peptide containing two fluorophores. In a second step, the reaction mix is incubated with a site-specific protease that cleaves non-phosphorylated but not phosphorylated substrate peptide, disrupting the FRET signal generated by the two fluorophores in the cleaved peptide (Z'Lyte™ Kinase assay platform; Life Technologies).
(§2) Reagents: 50 mM HEPES, pH 7.5; 0.01% BRIJ-35; 10 mM MgCl2; 1 mM EGTA, 2 uM substrate peptide Ser/Thr20 (proprietary Life Technologies Sequence), PAK enzyme [2.42-30.8 ng for PAK1, 0.29-6 ng for PAK2, 1.5-20 ng for PAK3 and 0.1-0.86 ng for PAK4; actual enzyme amounts depend on lot activity of the enzyme preparation]
(§3) Test compounds are dissolved in DMSO at various concentrations; the final DMSO concentration in the assay reaction is 1%.
(§4) ATP concentration at Km apparent is used in the assay [50 ? M ATP for PAK1 assay, 75 ? […]
(§5) Plates are analyzed in a standard fluorescence plate reader (Tecan or equivalent) using an excitation wavelength of 400 nm and emission wavelengths of 445 nm and 520 nm Inhibition of kinase reaction is determined by emission ratio=emission@ 445 nm/emission@ 520 nm

For the next assay, the target named is PAK4 (Homo sapiens, UniProt O96013). Briefly: Z'Lyte fluorescence-based (FRET) kinase assay, PAK4. The class given is biochemical. Particulars: 5 μM ATP (Km apparent), 1 hr room temperature. How it is done: as §1, §2, §3, §4, §5
The target in another assay is PAK3 (Homo sapiens, UniProt O75914). Briefly: Z'Lyte fluorescence-based (FRET) kinase assay, PAK3. The class given is biochemical. As to conditions: 100 μM ATP (Km apparent), 1 hr room temperature. How it is done: as §1, §2, §3, §4, §5
In a further assay the target is PAK1 (Homo sapiens, UniProt Q13153). Briefly: Z'Lyte fluorescence-based (FRET) kinase assay, PAK1. The class given is biochemical. As to conditions: 50 μM ATP (Km apparent), 1 hr room temperature. How it is done: as §1, §2, §3, §4, §5
In assay [1] the test system is C57/black 6 mice temporal cortex slices. Briefly: Slice electrophysiology assay (LTP in cortical slices). The class given is cell-based. Particulars: 1 μM compound; theta-burst stimulation protocol; temporal cortex slices of C57/black 6 mice. As to the method:
Materials: coronal cortical slices (400 μam) containing temporal cortex from 2- to 3-month-old C57-Black-6 mice male littermates (from Elevage Janvier, FRANCE) are prepared and allowed to recover in oxygenated (95% O2 and 5% CO2) warm (30° C.) artificial cerebrospinal fluid (ACSF) containing 124 mM NaCl, 5 mM KCl, 1.25 mM, NaH2PO4, 1 mM MgCl2, 2 mM CaCl2, 26 mM NaHCO3, and 10 mM dextrose.
Compound dilution: a 10 mM DMSO stock solution is prepared for each test compound and 100 μL aliquots are stored at −20° C. On the day of experiment an aliquot is thawed and vortexed for fresh solutions preparation. […]
LTP: a stimulus is applied every 30 s with an intensity settled at 40% of the maximal amplitude responses. […] Potentiation of synaptic transmission is then monitored for an additional 40 minutes period. […]
Compound evaluation: following a 10 minutes control recording period (to verify baseline stability), the compound is perfused for 20 minutes. Then, LTP is triggered and the fEPSP amplitude will be recorded for an additional 40 minutes period in the presence of compound.
Data analysis: fEPSP amplitudes are measured as the difference between the baseline (before stimulation) and the maximal peak amplitude. The fEPSP are normalized as a percent of the mean averaged amplitude recorded over a 10 min control period, before compound application. […]

PAK2, sequence (Q13177 whole entry): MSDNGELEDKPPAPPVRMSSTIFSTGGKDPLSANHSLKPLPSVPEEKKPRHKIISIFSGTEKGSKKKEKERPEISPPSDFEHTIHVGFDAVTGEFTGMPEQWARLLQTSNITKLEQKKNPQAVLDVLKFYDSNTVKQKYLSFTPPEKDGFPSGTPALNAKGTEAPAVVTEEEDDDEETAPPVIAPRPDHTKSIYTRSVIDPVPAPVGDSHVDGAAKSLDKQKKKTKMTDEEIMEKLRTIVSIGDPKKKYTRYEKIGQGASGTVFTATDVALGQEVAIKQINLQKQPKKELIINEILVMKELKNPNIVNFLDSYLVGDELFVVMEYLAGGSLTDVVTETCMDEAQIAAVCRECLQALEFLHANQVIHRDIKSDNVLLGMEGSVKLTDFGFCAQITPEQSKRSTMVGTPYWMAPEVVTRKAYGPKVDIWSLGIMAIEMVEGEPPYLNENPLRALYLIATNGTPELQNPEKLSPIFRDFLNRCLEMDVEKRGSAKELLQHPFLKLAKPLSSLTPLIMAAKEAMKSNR
PAK1, sequence (Q13153 whole entry): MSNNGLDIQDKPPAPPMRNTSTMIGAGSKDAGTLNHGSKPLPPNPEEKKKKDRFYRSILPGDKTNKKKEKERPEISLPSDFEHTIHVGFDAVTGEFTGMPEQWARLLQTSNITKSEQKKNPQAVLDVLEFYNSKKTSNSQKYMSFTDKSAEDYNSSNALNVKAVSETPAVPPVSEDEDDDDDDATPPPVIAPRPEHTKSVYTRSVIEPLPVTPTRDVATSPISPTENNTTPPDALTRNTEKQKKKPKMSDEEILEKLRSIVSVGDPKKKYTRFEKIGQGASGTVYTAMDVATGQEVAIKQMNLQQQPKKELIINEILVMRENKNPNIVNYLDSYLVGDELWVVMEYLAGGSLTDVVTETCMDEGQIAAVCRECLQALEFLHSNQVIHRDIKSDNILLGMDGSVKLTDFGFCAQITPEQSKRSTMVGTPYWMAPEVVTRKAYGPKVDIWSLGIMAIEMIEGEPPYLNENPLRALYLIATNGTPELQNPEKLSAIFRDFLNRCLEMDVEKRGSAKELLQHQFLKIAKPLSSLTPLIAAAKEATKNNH
PAK3, sequence (O75914 whole entry): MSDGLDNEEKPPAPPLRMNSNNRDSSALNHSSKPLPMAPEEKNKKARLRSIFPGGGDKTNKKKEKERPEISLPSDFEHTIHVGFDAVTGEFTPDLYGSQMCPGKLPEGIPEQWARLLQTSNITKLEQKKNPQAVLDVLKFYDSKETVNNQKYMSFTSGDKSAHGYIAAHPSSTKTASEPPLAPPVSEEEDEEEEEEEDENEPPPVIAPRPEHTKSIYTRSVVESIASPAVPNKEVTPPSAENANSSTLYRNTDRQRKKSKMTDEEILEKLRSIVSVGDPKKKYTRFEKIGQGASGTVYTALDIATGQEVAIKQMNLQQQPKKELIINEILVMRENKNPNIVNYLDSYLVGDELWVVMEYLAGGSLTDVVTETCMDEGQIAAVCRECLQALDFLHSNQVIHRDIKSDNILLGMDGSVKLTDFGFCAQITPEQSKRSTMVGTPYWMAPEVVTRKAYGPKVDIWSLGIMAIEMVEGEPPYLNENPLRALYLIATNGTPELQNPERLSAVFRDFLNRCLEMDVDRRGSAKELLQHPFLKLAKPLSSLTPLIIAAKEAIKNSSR
PAK4, sequence (O96013 whole entry): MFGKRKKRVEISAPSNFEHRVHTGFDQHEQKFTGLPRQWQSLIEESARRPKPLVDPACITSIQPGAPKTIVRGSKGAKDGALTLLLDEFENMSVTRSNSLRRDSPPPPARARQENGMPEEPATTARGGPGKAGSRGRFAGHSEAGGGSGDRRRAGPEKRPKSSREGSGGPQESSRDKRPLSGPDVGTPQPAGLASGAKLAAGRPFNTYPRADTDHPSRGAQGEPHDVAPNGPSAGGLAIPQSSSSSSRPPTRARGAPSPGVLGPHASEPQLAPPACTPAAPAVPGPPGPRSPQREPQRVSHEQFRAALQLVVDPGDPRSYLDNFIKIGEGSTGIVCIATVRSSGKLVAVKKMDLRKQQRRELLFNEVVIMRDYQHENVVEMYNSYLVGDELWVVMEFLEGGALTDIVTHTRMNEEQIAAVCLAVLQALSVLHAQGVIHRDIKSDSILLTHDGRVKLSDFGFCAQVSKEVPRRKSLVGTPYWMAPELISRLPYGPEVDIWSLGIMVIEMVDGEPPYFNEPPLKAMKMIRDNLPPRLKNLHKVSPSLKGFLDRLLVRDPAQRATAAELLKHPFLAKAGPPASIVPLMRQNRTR

`CCOc1ccccc1Cn1c(=O)ccc2cnc(Nc3ccc(N4CCN(C)CC4)cc3)nc21` [Compound 62]: the half-maximal inhibitory concentration (IC50) on PAK2 was under 1 µM; at PAK4, 1 to 10 µM; on PAK3, under 1 µM; at PAK1, under 1 µM.

Consider `COc1cc(Nc2nccc(-c3ccc(NCCN)nc3)n2)cc(OC)c1OC` [Compound A], for which, in assay [1], the “LTP compared to the baseline (fEPSP amplitude)” value was “increased LTP”.

`CN1CCN(c2ccc(Nc3ncc4ccc(=O)n(C5CCCC5)c4n3)cc2)CC1` [Compound G, 8-cyclopentyl-2-(4-(4-methylpiperazin-1-yl)phenylamino)pyrido[2,3-d]pyrimidin-7(8H)-one]: in assay [1], the “LTP compared to the baseline (fEPSP amplitude)” value is on record as “increased LTP”.
